Laboratory results reported in PMC10627047, “Flavone-based dual PARP-Tubulin inhibitor manifesting efficacy against endometrial cancer” (Journal of Enzyme Inhibition and Medicinal Chemistry, 2023).

Columns and labels:
Tubulin = target: T1, Tubulin (Sus scrofa, UniProt P02550+P02554); assay: In vitro microtubule assembly (tubulin polymerisation) assay; type: biochemical; settings: treatment concentrations 0.1, 1, 5, 10 μM; mean ± SD of three experiments
T1 construct: purchased Cytoskeleton T240 (kit BK006P)
Procedure: The assay was performed using the tubulin polymerisation kit (BK006P,Cytoskeleton). Pure tubulin (cat. # T240) was equilibrated in 80 mM PIPES, 1 mM EGTA, 1 mM MgCl2, pH 6.8 buffer (BRB80) and centrifuged at 75 000 rpm for 10 min in an TLA-100 rotor in a centrifuge.

Ishikawa cells [1] = assay: Cell cycle analysis (flow cytometry); type: cell-based, human; settings: 0.5 µM and 1 µM, 48 h, vs control group
Procedure: Furthermore, the regulatory effect of compound 14 in the cell cycle distribution of Ishikawa cancer cells was evaluated via flow cytometric analysis. Ishikawa cells seeded on a 6-well plate (3 × 10^5 cells/well) were treated with compound 14 for 48 h. After 48 h treatment of Ishikawa cells with compound 14, the cell cycle started to be arrested at the G2/M phase.
Cells were treated with compound 14 (10, 50, 100, 500 and 1000 nM) for […], collected and washed once with PBS. The pellet was then fixed in 70% ethanol overnight, followed by one washing with PBS and incubation with RNAse A for 90 min at 37 °C. Cells were then stained with PI and acquired in FACS. Analysis of the data was done by Modfit software (Verity Software House Inc., Topsham, ME) for the proportions of different cell cycle phases.[69]

Ishikawa cells [2] = assay: Intracellular ROS (DCFDA staining); type: cell-based, human; settings: Ishikawa cells, 100, 500 and 1000 nM, 24 h, vs untreated control
Description: The intracellular ROS levels in control and compound 14-treated cells were examined using the DCFDA fluorescent dye.
Dichlorodihydrofluorescin diacetate (DCFHDA) is a fluorogenic dye that measures hydroxyl, peroxyl, and other reactive oxygen species (ROS) activity within the cell. The oxidative conversion of DCFH-DA to DCF (2′, 7′ -dichlorofluorescein) leads to the detection of intracellular ROS. As such, an increase in intracellular ROS is indicative of apoptosis in cancer cells Ishikawa cells were treated with compound-14 at 100, 500, and 1000 nM concentrations for 24 h. After 24h cells were stained with DCFHDA (20 µM) (Cat no, 287810) for 45 min. After 45 min, cells were washed with PBS buffer and analysed with a fluorescence microscope.

Ishikawa cell lines = assay: In-vitro cytotoxicity (MTT cell viability assay); type: cell-based; settings: Homo sapiens; Ishikawa cell lines, MTT, 48 h incubation, mean ± SD, at least three experiments; read-out: IC50 values (Ishikawa cell lines, µM ± SD), in-vitro growth inhibition
Procedure: The cell growth inhibitory effects of the synthesised compounds were evaluated against Ishikawa cell lines. […] Forth, the synthesised compounds bearing a substituted phenyl ring at position 2 of the biaryl arm bearing benzopyrans were profiled for the cytotoxic effects. Noteworthy to mention that diverse substitutions with varied electronic effects viz fluorine (−I, +R), methoxy (−I, +R), and nitro (−I and − R) were made on the phenyl ring (position 2 of benzopyran). Also, the trimethoxy phenyl ring well established as an imperative structural feature of tubulin inhibitors was tethered to the benzopyran scaffold (20, 21).
Ishikawa cells (a human endometrial carcinoma of the epithelial cell) were kindly gifted by Dr. Geetanjali Sachdeva and Dr. Uddhav Chaudhari of National Institute for Research In Reproductive and Child Health (NIRRCH), Mumbai. […] The cells were maintained in RPMI medium supplemented with 10% Foetal bovine serum (FBS) and 100 IU/mL penicillin.
Mitochondrial activity was evaluated by MTT assay.[59] This assay is based on enzymatic reduction of the yellow-colored MTT dye to purple-colored formazan crystals by a variety of mitochondrial and cytosolic enzymes that are operational in viable cells. Briefly, […] (3000 cells/well) were seeded in 100 µL of medium into a 96-well plate and left to settle in a CO2 incubator. […] Then 150 μL of DMSO was added to each well to dissolve the formazan crystals. The optical density (OD) of each well was recorded using a microplate reader at a wavelength of 570 nm. The percentages of cell viability and growth inhibition were calculated according to the following equations. Cell viability (%) = [(OD of treated cells-OD of blank)/(OD of control-OD of blank) ×100].

LC3 in Ishikawa cells = assay: Western blotting, cleavage of LC-3; type: cell-based, human; settings: Ishikawa cells, 100, 500 and 1000 nM, 24 h
Procedure: Literature precedents indicate that autophagy triggers the cleavage of tubulin-associated protein LC-3 yielding cytosolic LC3-I (18 kDa) and autophagosome-associated LC3-II (16 kDa).[50–58] Thus, the ability of compound 14 was evaluated to induce the cleavage of this cytosolic protein. […] Considering the aforementioned cleavage of cytosolic microtubule-associated protein light chain-3 (LC3)-I into LC3-II as an autophagy-specific marker, it was deduced that 14 is an autophagy inducer.
Ishikawa cells were treated with compound-14 at 100, 500, and 1000 nM concentrations for 24 h. After 24h cells were collected and centrifuged at 400 g, washed in PBS and cell pellets were lysed in RIPA buffer in preparation of the whole cell lysate. Supernatants were collected and proteins were estimated using the Bradford reagent. An equal amount of protein (60–80 µg) was loaded into each well for SDS-PAGE. Blocking was done with 5% BSA at room temperature with shaking for 2 h. After the SDS page run was completed, we washed the PVDF membrane and then blocking was done. Blots were incubated with different primary antibodies(1:1000 dilutions), and secondary antibodies (1:10 000 dilutions) and chemiluminescence was captured on Chemidoc after incubating the blots in ECL plus solution. […]

Ishikawa cells [3] = assay: Acridine orange staining, autophagy; type: cell-based, human; settings: Ishikawa cells, 0.1, 0.5 and 1 µM
Procedure: Compound 14 was evaluated for its ability to induce autophagy by acridine orange staining assay. […] This shift towards red fluorescence represents an elevation in autophagic flux, reflecting an active process of cellular degradation and recycling.
The Autophagy induction ability of compound 14 was assessed by acridine orange staining which is used to measure the autophagic acidic vesicular organnelles. Ishikawa cell were seeded in a six-well plate and treated with compound 14 for 48 h. Incubation of the cells was done with 1 mg/mL Acridine orange (Cat no. A9231) before the termination of the experiment. Cells were then washed with PBS and then analysed with a fluorescence microscope. […] A9231.

T1 sequence (P02550 whole entry): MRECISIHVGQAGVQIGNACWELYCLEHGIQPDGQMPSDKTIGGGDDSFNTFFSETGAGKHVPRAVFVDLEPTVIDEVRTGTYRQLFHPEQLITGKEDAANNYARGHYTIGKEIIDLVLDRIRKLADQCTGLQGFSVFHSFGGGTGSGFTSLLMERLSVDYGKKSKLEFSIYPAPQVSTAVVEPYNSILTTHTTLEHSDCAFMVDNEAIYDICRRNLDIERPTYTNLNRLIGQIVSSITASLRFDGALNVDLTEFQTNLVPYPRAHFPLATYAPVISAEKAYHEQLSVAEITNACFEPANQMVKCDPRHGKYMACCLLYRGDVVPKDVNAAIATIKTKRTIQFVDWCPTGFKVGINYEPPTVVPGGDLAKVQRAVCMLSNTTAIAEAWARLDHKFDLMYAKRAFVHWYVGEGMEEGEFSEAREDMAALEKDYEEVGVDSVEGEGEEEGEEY
T1 sequence (P02554 whole entry): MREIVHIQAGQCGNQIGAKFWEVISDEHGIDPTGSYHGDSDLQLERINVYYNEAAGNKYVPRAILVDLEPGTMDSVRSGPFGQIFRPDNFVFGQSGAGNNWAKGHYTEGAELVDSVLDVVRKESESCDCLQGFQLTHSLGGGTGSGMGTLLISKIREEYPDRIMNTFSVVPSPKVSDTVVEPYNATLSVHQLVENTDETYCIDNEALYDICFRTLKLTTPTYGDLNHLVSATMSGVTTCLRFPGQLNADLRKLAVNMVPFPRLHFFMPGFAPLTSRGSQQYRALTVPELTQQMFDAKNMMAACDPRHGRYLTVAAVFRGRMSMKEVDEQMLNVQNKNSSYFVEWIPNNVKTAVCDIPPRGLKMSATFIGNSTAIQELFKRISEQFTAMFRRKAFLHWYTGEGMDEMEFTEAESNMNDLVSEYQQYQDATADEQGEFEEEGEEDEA

O=c1cc(-c2ccc(F)cc2)oc2cc(-c3ccoc3)ccc12 [Compound 14, 2–(4-fluorophenyl)-7-(furan-3-yl)-4H-chromen-4-one]
IC50 (Tubulin): 1.4 ± 0.3 µM
Cell cycle distribution (G2/M phase arrest) (Ishikawa cells [1]): significant increase in G2/M phase cell cycle arrest
Intracellular ROS levels (DCFDA fluorescence) (Ishikawa cells [2]): significant increase in fluorescence intensity
IC50 (Ishikawa cell lines): 1 ± 0.4 µM
Cleavage of LC-3 (autophagy marker, western blot) (LC3 in Ishikawa cells): concentration-dependent cleavage of LC3
Autophagy induction (acridine orange staining) (Ishikawa cells [3]): induces autophagy by increasing autophagic flux in a concentration-dependent manner
